Reference: US9867879B2 (Vanderbilt University, priority 2015, dated 2018)
≈ marks a conversion by molar mass, not a printed value. Entries after “also recorded” stand apart in the source; their conditions may differ. Where two headings read alike, the source gives them in different places.

Tests used:
HssRS = experiment: microbe, parasite or virus in culture; assay type: cell-based, S. aureus; settings: for EC50: Staphylococcus aureus, 6 h; for Efficacy: percent activation of HssRS compared to 1 at 50 μM, error one standard deviation; for HssRS activation in single point screen: 50 μM, fraction of activation relative to 1, cut-off 0.05, in words; for drop in efficacy: compared to 1
Description: Previously reported strains were used.^11 Cultures grown overnight in 5 ml TSB with 10 μg mL^−1 chloramphenicol for 15-18 h were subcultured 1:100 into 0.5 mL TSB with 10 μg mL^−1 chloramphenicol containing compound and incubated at 37° C., 180 rpm for 6 h. Cells were washed and lysed as previously described. 200 μL of a 200 μM catechol solution in 100 mM potassium phosphate (pH 8.0) was added to 20 μL of lysate and the oxidation of catechol was followed by monitoring absorbance at 375 nm for 10 min. Samples were normalized to protein concentration as determined by BCA assay (Pierce).
The above XylE procedure was followed using different concentrations of compound. The data were then entered into Graphpad Prism 6 and fit to a curve to determine EC50 values.
HssRS activation. The library was screened for activation of the heme stress response as an indicator for activation of heme biosynthesis in S. aureus. We began by screening at the single point concentration of 50 μM using a previously described reporter assay (FIG. 4).^11 In this assay, Newman harboring a plasmid with the hrt promoter fused to xylE, a gene encoding a catechol oxidase, is treated with compound for six hours, the bacteria lysed, and the oxidation of catechol by XylE quantified by spectrophotometry. An increase in absorbance due to the oxidation of catechol indicates elevated levels of xylE transcription and hrt promoter activity. Results are expressed as the fraction of activation of HssRS by the compound compared to 1. […] With reference to FIG. 8, activation of HssRS by 3a and 3b at 50 μM. Activity is presented as the fraction of activation by the indicated derivative relative to 1 at 50 μM.

[1] = test system: wild type S. aureus strain Newman; experiment: Growth inhibition IC50, Newman aerobic; assay type: cell-based; settings: 95% confidence interval, >60 μM considered nontoxic
Description: (§1) Cultures of wild type S. aureus strain Newman and ΔmenB^14 were grown in aeration tubes aerobically at 37° C. with shaking for 15-18 h. Anaerobic cultures were prepared by growing bacteria at 37° C. without shaking in an anaerobic chamber for 15-18 h. Bacteria from each condition were subcultured 1:100 into TSB containing various concentrations of compound in a 96 well plate. Aerobic wild type and ΔmenB plates are incubated aerobically at 37° C. with shaking while anaerobic plates were grown in an anaerobic chamber (Coy) at 37° C. without shaking. The absorbance at 600 nm (OD600) was determined after 9 h of growth and the fraction of growth at each compound concentration is determined by dividing the OD600 by the vehicle control (DMSO) value. IC50s were calculated using Graphpad Prism 6 and errors are reported as 95% confidence intervals.
(§2) Wild type S. aureus strain Newman was grown in an anaerobic chamber in appropriate media to ensure exclusion of terminal electron acceptors sufficient to force the bacteria to ferment. […] The arbitrary cut off point for toxicity of 60 μM was chosen as many of the compounds were not entirely soluble above this concentration.

[2] = test system: wild type S. aureus strain Newman; experiment: Growth inhibition IC50, Newman anaerobic (fermenting); assay type: cell-based; settings: for IC50: Staphylococcus aureus, NEWMAN, 9 h of growth, anaerobic chamber, 95% confidence interval, >60 μM considered nontoxic; for toxicity to fermenting / anaerobic S. aureus (in words): anaerobic Newman and ΔmenB, from IC50 data
Description: as §1, §2

ΔmenB = experiment: Growth inhibition IC50, ΔmenB; assay type: cell-based, S. aureus; settings: Staphylococcus aureus, 9 h, read-out: IC50 ΔmenB
Description: as §1, with “intervals. […]” for “intervals.”

S. aureus [3] = experiment: Heme adaptation assay; assay type: cell-based; settings: subculture into 20 μM heme
Description: Overnight cultures of S. aureus were subcultured into 500 μL TSB containing compound in 1.5 mL tubes and incubated at 37° C. with shaking for 15 h. Bacteria from the compound treated cultures were then subcultured 1:100 into 100 μL TSB containing heme and incubated at 37° C. with shaking for 8 h. Growth was monitored by reading the OD600 on a Biotek microplate reader at the defined time intervals.
Finally, the top activators were assayed for their ability to preadapt S. aureus to heme as an indication that they can activate HssRS outside the context of a reporter assay. Pretreatment of cultures with a compound that induces HrtAB expression through activation of HssRS at subtoxic concentrations allows the bacteria to survive and grow when subcultured into a toxic concentration of heme. Pretreatment with 4 μM heme, 40 μM 1, and vehicle with 40 μM of each of the top activators were compared (excluding 2d because of toxicity). All derivatives were able to preadapt S. aureus to a toxic concentration of heme (20 μM) as well as 4 μM heme and 40 μM 1 (FIG. 5). The discrepancy between XylE assay and heme adaptation activity is likely due to the length of treatment with compound (6 h vs. 15 h).

S. aureus [4] = settings: earlier method, low cell density; cited from earlier work
S. aureus infection = settings: previously reported; cited from earlier work
Solubility limit = assay type: physicochemical
[5] = test system: heme biosynthetic pathway; experiment: Accumulation of heme precursor molecules; assay type: cell-based, S. aureus; settings: data not shown
Excerpt: Because ALA is the first committed precursor molecule in the heme biosynthetic pathway, if ALA is contacted with bacteria, the bacteria will generated enhanced amounts of all of the heme precursor molecules downstream of ALA.

[6] = Staphylococcus aureus, NEWMAN, 9 h, read-out: IC50 Newman aerobic, 9 h of growth, aerobic

Row | SMILES | EC50 (HssRS) [µM] | EC50 (HssRS; read-out: pEC50 (converted)) [µM] | IC50 [1, 6] [µM] | IC50 ([1]; read-out: IC50 Newman aerobic, 9 h of growth, aerobic) [µM] | IC50 [2] [µM] | toxicity to fermenting / anaerobic S. aureus (in words) [2] | IC50 (ΔmenB) [µM] | preadaptation to heme toxicity (S. aureus [3]; pretreatment 20 μM compound) | HssRS activation (in words) (HssRS; summary statements, concentration not fixed) | preadaptation to heme toxicity (S. aureus [3]; pretreatment 40 μM compound) | Efficacy (HssRS) [%] | anaerobic toxicity (previously reported) (S. aureus [4]) | HssRS activation in single point screen (HssRS) | drop in efficacy (HssRS) [%] | efficacy in mouse model of S. aureus infection (S. aureus infection) | solubility (Solubility limit) [µM] | accumulation of PBG [5]
1 | Oc1ccccc1-c1cc(-c2ccccc2O)[nH]n1 [Compound 2d, 2,2′-(1H-pyrazole-3,5-diyl)diphenol] | 5.81 | 5.75 | 42.2 | 42.5 | 15.8 | anaerobic toxicity similar to 1; also recorded: exhibits both activities | 9.33 | excellent preadaptation to heme toxicity |  |  |  |  |  |  |  |  | 
2 | COc1ccccc1-c1cc(-c2ccccc2)[nH]n1 [Compound 3a, 3-(2-methoxyphenyl)-5-phenyl-1H-pyrazole] |  |  | > 60 |  | 20.8 | maintaining toxicity | 24.9 |  | removes HssRS activity | indistinguishable from vehicle |  |  |  |  |  |  | 
3 | Oc1c(-c2cc(-c3ccco3)[nH]n2)ccc2ccccc12 [Compound 1] | 11.6 | 12.6 | > 60 |  | 13.5 | intermediate between the two | 1.66 |  |  |  | 100 | toxic to S. aureus growing anaerobically |  |  |  |  | 
4 | Oc1ccccc1-c1cc(-c2ccccc2F)[nH]n1 [Compound 2e] | 10.7 | 10.7 | > 60 |  | > 60 | eliminates this toxicity; also recorded: not bacteriostatic under the conditions tested here; also recorded: removes toxicity | > 60 |  |  |  | 35.7 ± 10.1 | anaerobic toxicity | comparable to 1a in activity | ~70 | efficacy in a mouse model of S. aureus infection |  | 
5 | CCCCCc1cc(-c2ccccc2O)n[nH]1 [Compound 2o, 2-(5-pentyl-1H-pyrazol-3-yl)phenol] |  |  | 48.6 |  | 11.6 | comparably toxic to 1 | 13.2 |  |  | indistinguishable from vehicle |  |  |  |  |  |  | 
6 | Oc1ccccc1-c1cc(-c2ccncc2)[nH]n1 [Compound 2i] |  |  | > 60 |  | > 60 |  | > 60 |  |  | indistinguishable from vehicle |  |  |  |  |  |  | 
7 | Oc1ccccc1-c1cc(-c2cccs2)[nH]n1 [Compound 2a, 2-(5-(thiophen-2-yl)-1H-pyrazol-3-yl)phenol] |  |  | > 60 |  | > 60 |  | > 60 |  |  |  | 17.0 ± 2.9 |  |  |  |  | ~80 (≈ 19.4 µg/mL) | 
8 | NCC(=O)CCC(=O)O [ALA, reference compound] |  |  |  |  |  |  |  |  |  |  |  |  |  |  |  |  | results in accumulation of PBG
9 | O=C(Nc1ccccc1-c1cc(-c2ccco2)[nH]n1)c1cc(Cl)cc(Cl)c1 [Compound 1i, 3,5-dichloro-N-(2-(5-(furan-2-yl)-1H-pyrazol-3-yl)phenyl)benzamide] |  |  | > 60 |  | 19.6 |  | 8.69 |  |  | indistinguishable from vehicle |  |  |  |  |  |  | 
10 | Oc1ccccc1-c1cc(-c2cc(F)ccc2F)[nH]n1 [Compound 2f, 2-(5-(2,5-difluorophenyl)-1H-pyrazol-3-yl)phenol] | 13.6 | 12.6 | > 60 |  | > 60 | eliminates this toxicity | > 60 |  |  |  | 30.1 ± 8.0 |  | comparable to 1a in activity | ~70 |  |  | 
